Assays:
[1] = Cytotoxicity by survived cell number in 293 cells expressing ∆K280 TauRD‐DsRed; format: cell-based; conditions: human; 293 cells expressing ∆K280 TauRD‐DsRed for 3 days
Source text: In ∆K280 TauRD‐DsRed 293 cells, a proaggregant (ΔK280) Tau repeat domain (TauRD) containing residues 244–372 of the full‐length 4R2N Tau441 was fused in‐frame with DsRed fluorophore. Compared to the wild‐type TauRD, the poorly folded ΔK280 TauRD formed aggregates, which adversely affected the folding of fused DsRed and thus decreased DsRed fluorescence, as also evidenced by increase in thioflavin S fluorescence emission (Chang et al., 2017). Thioflavin S is a reporter dye for studies of Tau toxicity and pharmacologic prevention in cell model of tauopathy (Pickhardt et al., 2017). It binds to amyloid fibrils but not monomers and gives a distinct increase in fluorescence emission. Inhibition of Tau aggregation may improve DsRed misfolding, leading to increased fluorescence in ΔK280 TauRD‐DsRed‐expressing cells. Utilizing the established Tet‐on ΔK280 TauRD‐DsRed 293 cells (Chang et al., 2016), licochalcone A and LM compounds were tested for effects of reducing Tau misfolding and anti‐oxidation (Figure S2a). Congo red was included for comparison. […] In the following experiments, DsRed fluorescence was measured in wells containing at least 80% viable cells. […] Due to the features of their effectiveness and less cytotoxicity, licochalcone A (1 μM) and LM‐031 (1 μM) were chosen as the candidate compounds for the following experiments. […] Representative DsRed and thioflavin S fluorescent images of ∆K280 TauRD‐DsRed‐expressing cells untreated or treated with congo red (10 µM), licochalcone A (1 µM), or LM‐031 (1 µM) are shown in Figure S2d.
DsRed fluorescence of proaggregant ∆K280 TauRD-DsRed 293 cells was evaluated to reflect Tau aggregation. On day 1, cells were seeded on a 96-well plate in a density of 0.8 × 10^4 cells/well. […] On the fifth day, the cells were stained with Hoechst 33342 (0.1 µg/ml; Sigma-Aldrich) for 30 min to identify total cell number; DsRed fluorescence images (543 nm excitation and 593 nm emission) were automatically captured by using the ImageXpressMICRO high-content imaging system (Molecular Devices, Sunnyvale, CA, USA) and analyzed using MetaXpress image acquisition and analysis software (Molecular Devices). In addition, the cells were fixed with paraformaldehyde (4% in PBS) for 15 minutes, permeabilized with methanol (80%) for 6 minutes at -20°C, incubated with thioflavin S (0.02%; Sigma-Aldrich) and 4’,6-diamidino-2-phenylindole (DAPI) (0.1 μg/ml; Sigma-Aldrich) for 5 minutes, and washed in ethanol (50%). Thioflavin S images ([…]) were captured and analyzed as described. In general, 2 × 10^4 cells in each biological replicate were analyzed.
Figure S2. ΔK280 TauRD-DsRed 293 cells. (a) Experimental flow chart. Cells were plated on day 1. On day 2, the cells were treated with congo red or test compounds for 8 h; addition of doxycycline (Dox; 1 µg/ml) followed. DsRed/thioﬂavin S fluorescence, ROS, and caspase 3 activity were assessed on day 5. (b) Cytotoxicity of the test compounds against 293 cells expressing ∆K280 TauRD-DsRed for 3 days using the survived cell number (n = 3). IC50 values are listed. (c) Dose response curves of LM-031 based on DsRed fluorescence measurement. (d) Fluorescent images of ΔK280 TauRD-DsRed 293 cells untreated or treated with congo red (10 µM), licochalcone A (1 µM), or LM-031 (1 µM). Nuclei were counterstained with Hoechst 33342 (blue), and merged DsRed and Hoechst 33342 signals were shown. In addition, tau aggregation was monitored by staining with thioﬂavin S (green).

[2] = MTT cytotoxicity in uninduced retinoic acid‐differentiated SH‐SY5Y cells; format: cell-based; conditions: human
Procedure: (§1) Licochalcone A and five derivative LM compounds were tested (Figure 1a). All six compounds were soluble up to 100 μM in a cell culture medium (Figure S1a). Based on molecular weight (MW), hydrogen bond donors (HBD), hydrogen bond acceptors (HBA), and calculated octanol/water partition coefficient (cLogP), all six compounds meet Lipinski's criteria in predicting oral bioavailability (Lipinski, Lombardo, Dominy, & Feeney, 1997) (Figure S1b). […] To choose the optimal treatment dose used for the best efficacy of the candidate compounds, a specific type of biphasic dose response of a compound called hormesis should take into consideration. Evidence has shown that a wide range of pharmaceutical products display a hermetic dose‐response feature, characterized by a low‐dose stimulation and a high‐dose inhibition (Calabrese et al., 2018; Concetta Scuto et al., 2019; Pilipenko et al., 2019). Therefore, we tested the compounds at a range of doses to find the optimal dose for the best therapeutic effect and the least cytotoxicity. Firstly, MTT assay was performed using uninduced ∆K280 TauRD‐DsRed 293 and retinoic acid‐differentiated SH‐SY5Y cells following treatment with the test compounds (0.1–10 μM) for 3 (for 293 cells) or 7 (for SH‐SY5Ycells) days. […] Congo red is an amyloidogenic dye known to reduce Aβ neurotoxicity (Lorenzo & Yankner, 1994).
(§2) Licochalcone A was purchased from Sigma-Aldrich, St. Louis, MO, USA. In-house LM compounds were synthesized and characterized by NMR spectrum as described (Lee et al., 2012, 2015, 2018). Tet-On ∆K280 TauRD-DsRed 293 and SH-SY5Y cells (Chang et al., 2016) were cultured in Dulbecco’s modified Eagles medium (DMEM) (293) or DMEM-F12 (SH-SY5Y) containing 10% fetal bovine serum (Invitrogen, Carlsbad, CA, USA), 5 μg/ml of blasticidin, and 100 μg/ml of hygromycin (InvivoGen, San Diego, CA, USA). Compound cytotoxicity was assessed by colorimetric assay for measuring cell metabolic activity. Briefly, 5 × 10^4 cells were plated (48-well plates), grown for 20 h, and treated with the test compounds ([…]). […], 20 µl of 3-(4,5-dimethylthiazol-2-yl)-2,5-diphenyltetrazolium bromide (MTT, 5 mg/ml in PBS; Sigma-Aldrich) was added to the cells and incubated at 37°C for 3 h. Then 200 µl of lysis buffer (10% Triton X-100, 0.1 N HCl, 18% isopropanol) was added and the absorbance of the insoluble product at OD 570 nm was measured by a microplate reader (FLx800 fluorescence microplate reader, Bio-Tek, Winooski, VT, USA). The half-maximal inhibitory concentration (IC50) was calculated using the interpolation method.
(§3) Figure S1. Test compounds. (a) Solubility (in cell culture medium) of test compounds. (b) Molecular weight (MW), hydrogen bond donor (HBD), hydrogen bond acceptor (HBA), calculated octanol-water partition coefficient (cLogP), polar surface area (PSA), and predicted blood-brain barrier (BBB) score of test compounds. (c) Cytotoxicity of test compounds against ∆K280 TauRD-DsRed 293 and SH-SY5Y cells using the MTT assay. Uninduced 293 cells were plated on day 1 and treated with 0.1–10 μM test compounds on day 2. Cell viability was measured on day 5 (n = 3). In addition, uninduced SH-SY5Y cells were seeded with all trans retinoic acid (RA; 10 µM) on day 1 and treated with 0.1–10 μM test compounds on day 2. Cell viability was measured on day 9 (n = 3). To normalize, the relative viability in compound untreated cells was set at 100%. IC50 values are listed.

[3] = MTT cytotoxicity in uninduced ∆K280 TauRD‐DsRed 293 cells; format: cell-based; conditions: human
Procedure: as §1, §2, §3

Which IC50 at 3 days [1] does the source give for `COc1ccc(O)c(/C=C/C(=O)c2ccccc2)c1` [LM‐006] here?
The IC50 at 3 days was 5.3 µM.

And the IC50 at 7 days [2]?
Its IC50 at 7 days is 4.7 µM.

And the IC50 at 3 days [3]?
The IC50 at 3 days was 6.4 µM.

Which IC50 at 3 days [1] does the source give for `Cc1ccc(/C=C/C(=O)c2c(O)c3ccccc3oc2=O)cc1` [LM‐016] here?
The IC50 at 3 days was 9.4 µM.

What about the IC50 at 7 days [2] of the same compound?
The IC50 at 7 days was 6 µM.

And the IC50 at 3 days [3]?
The IC50 at 3 days was 9.3 µM.

With `COc1cccc(/C=C/C(=O)c2ccc(O)cc2)c1O` [LM‐026] as the compound, how does the IC50 at 3 days [1] read?
Its IC50 at 3 days is 8.5 µM.

And the IC50 at 7 days [2]?
Its IC50 at 7 days is 5.4 µM.

And the IC50 at 3 days [3]?
The IC50 at 3 days was 7.7 µM.

For Lucifer yellow, which “transport across PAMPA membrane (integrity marker)” value is on record?
Its value is “undetectable”.
